Results published in patent US20230312529A1, “PYRIMIDINE SMALL-MOLECULE COMPOUND AND APPLICATION THEREOF” (WENZHOU MEDICAL UNIVERSITY, priority 2021, published 2023).
Read-outs that look alike come from different tables or passages of the source.

Key:
[1] = system: human normal retinal cells ARPE-19; assay: MTT assay on human retinal cells; assay type: cell-based
[2] = system: human brain microvascular endothelial cells (HCMEC/D3); assay: MTT assay on human neovascular cells; assay type: cell-based
FLT3 = FLT3 (Homo sapiens (Human), UniProt P36888); assay: Caliper Mobility Shift kinase inhibition test; assay type: biochemical; details: 100 nM; read-out: inhibitory rate on FLT3
How it was run: (§1)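 Microfluidic mobility-shift readout of substrate conversion in HEPES pH 7.5 buffer with Brij-35, MgCl2 and DTT (1.25× stock concentrations). Inhibition taken relative to DMSO (max) and low (min) controls; IC50 from 10-point dilutions in duplicate, repeated three times.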

IKK β = IKK β (Homo sapiens (Human), UniProt O14920); assay: Caliper Mobility Shift kinase inhibition test; assay type: biochemical
How it was run: as §1

ALK = ALK (Homo sapiens (Human), UniProt Q9UM73); assay: Caliper Mobility Shift kinase inhibition test; assay type: biochemical
How it was run: as §1

[3] = system: PDGFR signaling pathway related proteins in MNNG cells; assay: Western Blot of PDGFR signaling pathway protein phosphorylation; assay type: cell-based; details: 0.1, 0.2 and 0.4 uM, 48 hours
Experimental: (§2) After pretreating the osteosarcoma cell line with the compound for 48 hours, the culture medium was sucked off, washed with PBS for 3 times, and the total protein was extracted after lysis. A phosphorylation level of the PDGFR signaling pathway related proteins was detected by Western Blot.

[4] = system: PDGFR signaling pathway related proteins in MG63 cells; assay: as above; assay type: cell-based; details: 0.1, 0.2 and 0.4 uM, 48 hours
Experimental: as §2

EGFR/T790M/L858R = EGFR/T790M/L858R (Homo sapiens (Human), UniProt P00533, L858R/T790M); assay: Kinase selectivity test; assay type: biochemical; details: 100 nM
Sequence of EGFR/T790M/L858R (P00533 25-1210 T790M/L858R): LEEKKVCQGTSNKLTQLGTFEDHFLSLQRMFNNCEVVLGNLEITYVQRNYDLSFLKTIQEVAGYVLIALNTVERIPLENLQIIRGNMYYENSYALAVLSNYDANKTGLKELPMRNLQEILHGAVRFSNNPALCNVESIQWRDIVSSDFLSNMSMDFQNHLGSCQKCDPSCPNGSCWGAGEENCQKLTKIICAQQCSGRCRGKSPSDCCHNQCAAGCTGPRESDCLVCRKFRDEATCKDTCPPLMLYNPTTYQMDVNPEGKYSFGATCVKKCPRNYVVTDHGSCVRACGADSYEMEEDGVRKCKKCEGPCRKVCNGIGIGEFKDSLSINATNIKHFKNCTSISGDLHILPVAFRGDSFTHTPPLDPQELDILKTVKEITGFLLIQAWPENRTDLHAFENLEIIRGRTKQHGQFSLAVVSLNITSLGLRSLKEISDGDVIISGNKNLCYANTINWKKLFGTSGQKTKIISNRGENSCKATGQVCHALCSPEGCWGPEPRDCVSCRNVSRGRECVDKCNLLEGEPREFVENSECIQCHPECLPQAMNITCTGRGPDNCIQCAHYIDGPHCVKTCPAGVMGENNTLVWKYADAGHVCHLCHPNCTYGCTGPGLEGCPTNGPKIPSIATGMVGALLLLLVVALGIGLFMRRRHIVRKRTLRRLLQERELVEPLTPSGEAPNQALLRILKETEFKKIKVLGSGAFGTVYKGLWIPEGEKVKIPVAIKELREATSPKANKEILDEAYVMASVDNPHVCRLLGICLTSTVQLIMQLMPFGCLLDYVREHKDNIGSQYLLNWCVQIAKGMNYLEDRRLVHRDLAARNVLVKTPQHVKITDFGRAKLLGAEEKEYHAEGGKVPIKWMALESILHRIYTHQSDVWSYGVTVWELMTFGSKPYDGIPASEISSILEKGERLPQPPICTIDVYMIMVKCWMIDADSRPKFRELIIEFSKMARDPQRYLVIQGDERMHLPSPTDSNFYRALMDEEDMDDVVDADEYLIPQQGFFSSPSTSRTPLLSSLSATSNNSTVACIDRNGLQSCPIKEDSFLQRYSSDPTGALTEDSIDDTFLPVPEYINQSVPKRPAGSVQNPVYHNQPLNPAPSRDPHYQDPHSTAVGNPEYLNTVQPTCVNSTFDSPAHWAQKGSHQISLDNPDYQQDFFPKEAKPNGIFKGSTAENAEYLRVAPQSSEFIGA
Experimental: (§3) The method adopted in the test was Caliper Mobility Shift Assay, which was a detection platform based on the mobility detection technology of microfluidic chip technology. Test steps: 1.25× kinase reaction buffer (62.5 mmol/L HEPES, pH 7.5; 0.001875% Brij-35; 12.5 mmol/L MgCl2; 2.5 mM DTT) and kinase reaction stop solution (100 mmol/L HEPES, pH 7.5; 0.015% Brij-35; 0.2% Coating Reagent #3) were configured. […] Collected data was tested on Caliper to yield that inhibition ratio to kinase activity=(max−conversion)/(max−min)×100. “max” was DMSO control without adding compound, and “min” was low control. When IC50 was determined, each sample was provided with 10 dilutions, each with 2 multiple holes, and repeated for 3 times.
(§4) According to the above-mentioned method for measuring kinase inhibitory activity, the inhibitory activity of the active compounds on other multiple kinases was measured to characterize the kinase selectivity of active inhibitors.

EGFR = EGFR (Homo sapiens (Human), UniProt P00533); assay: Kinase selectivity test; assay type: biochemical; details: 100 nM
Sequence of EGFR (P00533 25-1210): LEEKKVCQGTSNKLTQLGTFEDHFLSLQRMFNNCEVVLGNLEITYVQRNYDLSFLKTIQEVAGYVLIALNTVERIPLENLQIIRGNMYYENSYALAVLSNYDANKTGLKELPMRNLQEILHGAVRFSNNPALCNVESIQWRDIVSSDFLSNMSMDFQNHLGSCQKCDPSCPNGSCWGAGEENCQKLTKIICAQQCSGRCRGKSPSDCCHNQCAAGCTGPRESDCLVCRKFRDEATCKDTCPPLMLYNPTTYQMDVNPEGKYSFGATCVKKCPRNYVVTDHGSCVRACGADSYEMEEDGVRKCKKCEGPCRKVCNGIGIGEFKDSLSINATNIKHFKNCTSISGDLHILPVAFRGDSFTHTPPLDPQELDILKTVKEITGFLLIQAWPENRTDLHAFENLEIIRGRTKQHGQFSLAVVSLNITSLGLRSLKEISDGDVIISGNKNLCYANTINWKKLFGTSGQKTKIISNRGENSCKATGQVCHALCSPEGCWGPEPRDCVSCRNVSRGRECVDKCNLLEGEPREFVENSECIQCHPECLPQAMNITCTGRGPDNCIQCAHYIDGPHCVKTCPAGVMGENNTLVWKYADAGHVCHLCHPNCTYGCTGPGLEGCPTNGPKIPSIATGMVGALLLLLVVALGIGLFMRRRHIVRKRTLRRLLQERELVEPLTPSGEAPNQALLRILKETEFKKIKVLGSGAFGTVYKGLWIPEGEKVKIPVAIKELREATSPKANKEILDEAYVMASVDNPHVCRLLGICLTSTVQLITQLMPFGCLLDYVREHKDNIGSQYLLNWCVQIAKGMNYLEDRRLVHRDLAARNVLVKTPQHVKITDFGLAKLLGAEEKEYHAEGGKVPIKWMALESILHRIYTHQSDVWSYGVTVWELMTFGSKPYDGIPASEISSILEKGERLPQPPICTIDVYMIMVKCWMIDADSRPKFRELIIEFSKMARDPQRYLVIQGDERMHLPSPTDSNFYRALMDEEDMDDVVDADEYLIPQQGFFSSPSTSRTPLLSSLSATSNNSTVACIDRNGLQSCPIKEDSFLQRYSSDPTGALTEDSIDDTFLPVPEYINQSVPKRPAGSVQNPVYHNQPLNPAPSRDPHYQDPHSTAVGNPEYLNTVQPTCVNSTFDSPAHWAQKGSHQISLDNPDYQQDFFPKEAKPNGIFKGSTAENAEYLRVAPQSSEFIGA
Experimental: as §3, §4

EGFR T790M = EGFR T790M (Homo sapiens (Human), UniProt P00533, T790M); assay: Kinase selectivity test; assay type: biochemical; details: 100 nM
Sequence of EGFR T790M (P00533 25-1210 T790M): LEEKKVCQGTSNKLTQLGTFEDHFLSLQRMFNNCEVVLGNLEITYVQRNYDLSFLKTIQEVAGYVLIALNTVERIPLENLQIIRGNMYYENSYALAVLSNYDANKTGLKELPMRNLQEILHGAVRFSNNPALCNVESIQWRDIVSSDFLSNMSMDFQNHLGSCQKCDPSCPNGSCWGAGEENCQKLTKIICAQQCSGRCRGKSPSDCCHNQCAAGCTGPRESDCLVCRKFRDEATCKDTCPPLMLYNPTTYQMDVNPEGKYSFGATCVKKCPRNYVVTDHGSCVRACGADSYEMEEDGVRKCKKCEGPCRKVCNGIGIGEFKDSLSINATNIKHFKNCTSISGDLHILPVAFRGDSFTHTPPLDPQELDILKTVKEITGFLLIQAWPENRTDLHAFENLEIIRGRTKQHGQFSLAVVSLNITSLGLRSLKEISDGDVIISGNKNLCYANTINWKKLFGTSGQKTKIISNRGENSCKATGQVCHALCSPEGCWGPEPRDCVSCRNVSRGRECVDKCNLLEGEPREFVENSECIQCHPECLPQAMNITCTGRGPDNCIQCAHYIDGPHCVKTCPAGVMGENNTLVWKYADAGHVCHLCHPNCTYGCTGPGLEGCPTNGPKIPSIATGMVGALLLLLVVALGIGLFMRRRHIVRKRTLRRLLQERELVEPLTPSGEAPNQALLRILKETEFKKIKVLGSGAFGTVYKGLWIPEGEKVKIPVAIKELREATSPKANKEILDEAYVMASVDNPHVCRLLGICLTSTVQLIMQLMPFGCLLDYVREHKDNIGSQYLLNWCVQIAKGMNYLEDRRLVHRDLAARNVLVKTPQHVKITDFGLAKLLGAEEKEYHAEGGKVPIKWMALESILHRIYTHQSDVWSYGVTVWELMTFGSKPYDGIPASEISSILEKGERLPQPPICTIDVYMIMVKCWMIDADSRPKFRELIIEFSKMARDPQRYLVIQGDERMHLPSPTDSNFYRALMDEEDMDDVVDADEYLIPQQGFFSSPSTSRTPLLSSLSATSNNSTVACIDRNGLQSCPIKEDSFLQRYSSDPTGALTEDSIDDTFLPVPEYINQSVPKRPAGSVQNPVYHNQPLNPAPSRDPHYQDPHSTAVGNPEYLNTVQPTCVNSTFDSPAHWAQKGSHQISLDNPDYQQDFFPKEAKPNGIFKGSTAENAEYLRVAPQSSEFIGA
Experimental: as §3, §4

EGFR L858R/T790M/C797S = EGFR L858R/T790M/C797S (Homo sapiens (Human), UniProt P00533, C797S/L858R/T790M); assay: Kinase selectivity test; assay type: biochemical; details: 100 nM
Experimental: as §3, §4

KDR = KDR (Homo sapiens (Human), UniProt P35968); assay: Kinase selectivity test; assay type: biochemical; details: 100 nM
Sequence of KDR (P35968 20-1356, species assumed): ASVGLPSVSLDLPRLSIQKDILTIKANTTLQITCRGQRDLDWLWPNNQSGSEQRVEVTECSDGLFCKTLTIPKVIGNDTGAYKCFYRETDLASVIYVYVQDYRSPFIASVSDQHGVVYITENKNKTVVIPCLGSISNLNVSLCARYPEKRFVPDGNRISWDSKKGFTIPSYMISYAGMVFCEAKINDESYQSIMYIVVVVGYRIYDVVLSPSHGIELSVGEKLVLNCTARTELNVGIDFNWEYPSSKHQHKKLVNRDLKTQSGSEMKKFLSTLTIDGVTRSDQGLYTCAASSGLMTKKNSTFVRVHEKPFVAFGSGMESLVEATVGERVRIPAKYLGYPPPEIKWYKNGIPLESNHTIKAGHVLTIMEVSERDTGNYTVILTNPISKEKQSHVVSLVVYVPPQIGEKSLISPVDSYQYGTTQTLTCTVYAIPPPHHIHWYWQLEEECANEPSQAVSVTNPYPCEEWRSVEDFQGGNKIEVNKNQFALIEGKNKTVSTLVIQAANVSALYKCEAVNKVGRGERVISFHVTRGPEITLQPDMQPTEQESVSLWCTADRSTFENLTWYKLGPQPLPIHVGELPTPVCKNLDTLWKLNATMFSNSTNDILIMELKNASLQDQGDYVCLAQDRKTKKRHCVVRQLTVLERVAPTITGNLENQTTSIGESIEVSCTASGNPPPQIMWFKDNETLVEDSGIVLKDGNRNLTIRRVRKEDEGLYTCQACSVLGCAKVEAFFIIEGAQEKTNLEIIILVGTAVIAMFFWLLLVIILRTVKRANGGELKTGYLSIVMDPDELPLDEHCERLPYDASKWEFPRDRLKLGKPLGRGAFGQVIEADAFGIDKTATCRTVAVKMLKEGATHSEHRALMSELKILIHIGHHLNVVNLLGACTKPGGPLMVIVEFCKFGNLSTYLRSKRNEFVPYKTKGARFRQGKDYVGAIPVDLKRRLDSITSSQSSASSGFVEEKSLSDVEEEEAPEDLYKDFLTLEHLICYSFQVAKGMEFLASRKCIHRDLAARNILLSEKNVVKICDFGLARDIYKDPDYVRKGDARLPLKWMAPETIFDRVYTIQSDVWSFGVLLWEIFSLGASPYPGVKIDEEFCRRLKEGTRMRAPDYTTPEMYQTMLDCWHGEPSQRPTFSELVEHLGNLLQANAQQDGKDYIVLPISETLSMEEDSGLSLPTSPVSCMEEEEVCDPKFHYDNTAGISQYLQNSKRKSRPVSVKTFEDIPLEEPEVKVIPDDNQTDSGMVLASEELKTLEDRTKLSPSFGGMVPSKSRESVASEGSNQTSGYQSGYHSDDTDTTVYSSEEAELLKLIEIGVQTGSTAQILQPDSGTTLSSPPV
Experimental: as §3, §4

BTK = BTK (Homo sapiens (Human), UniProt Q06187); assay: Kinase selectivity test; assay type: biochemical; details: 100 nM
Experimental: as §3, §4

[5] = system: human cerebrovascular pericytes (HBVP); assay: MTT assay on human neovascular cells; assay type: cell-based
osteosarcoma cells MG63 = assay: Adhesion test of osteosarcoma cells on fibronectin; assay type: cell-based; details: 0.1, 0.2 and 0.4 uM, 48 hours, compared with positive drugs
Experimental: (§5) Each well was dried, and added with 100 μL of 33% glacial acetic acid and the crystal violet was dissolved by shaking for 10 minutes. The absorbance was measured by a microplate reader at […], and the adhesion rate (%)=(OD value of tumor cells in the drug-added treated group−Hu FN OD value)/(OD value of untreated tumor cells−Hu FN OD value)×100%.

osteosarcoma cells MNNG = assay: Adhesion test of osteosarcoma cells on fibronectin; assay type: cell-based; details: 0.1, 0.2 and 0.4 uM, 48 hours, compared with positive drugs
Experimental: as §5

[6] = system: SAOS-2 osteosarcoma cells; assay: MTT assay on osteosarcoma cells; assay type: cell-based; details: Homo sapiens, 48 hours, read-out: Inhibitory activity (IC50) SAOS-2
Experimental: (§6) Logarithmic osteosarcoma cells were inoculated into a 96-well plate with a cell concentration of 1,500 cell/well for 6 hours by using MTT assay, and each well was filled with 200 μL of cell suspension. […] The samples were cultured in an incubator for 48 hours (37° C., 5% CO2), and 20 v L of MTT (3-(4,5-dimethylthiazole-2)-2,5-diphenyltetrazole) were added into each hole. After continuous culture for 4 hours, the culture solution was discarded by suction, and 200 v L of DMSO were added to each well. […] Calculation method of IC50 value: the IC50 values of the samples were calculated by curve fitting with GraphPad Prism software.

[7] = system: MNNG/HOS osteosarcoma cells; assay: MTT assay on osteosarcoma cells; assay type: cell-based; details: 48 hours, read-out: Inhibitory activity (IC50) MNNG/HOS
Experimental: as §6

MG-63 osteosarcoma cells = assay: MTT assay on osteosarcoma cells; assay type: cell-based; details: Homo sapiens, 48 hours, read-out: Inhibitory activity (IC50) MG-63
Experimental: as §6

U2OS osteosarcoma cells = assay: MTT assay on osteosarcoma cells; assay type: cell-based; details: Homo sapiens, 48 hours, read-out: Inhibitory activity (IC50) U2OS
Experimental: as §6

[8] = compared with multiple positive drugs

In the case of `CCN1CCN(c2ccc(Nc3ncc(C)c(Nc4ccc5cn[nH]c5c4)n3)cc2OC)CC1` [Compound 6i, N^2-(4-(4-ethylpiperazine-1-yl)-3-methoxyphenyl)-N^4-(1H-indazol-6-yl)-5-methylpyrimidine-2,4-diamine], the IC50 ([1]; Homo sapiens, ARPE-19, MTT, read-out: Inhibitory activity (IC50) ARPE-19) is reported as 17500 ± 370 nM, the “inhibitory activity on ARPE-19 (in words)” value ([1]; at low concentration) is reported as “almost no inhibitory activity” and the IC50 ([2]; Homo sapiens, hCMEC/D3, MTT, read-out: Inhibitory activity (IC50) HCMEC-D3) is reported as 230 ± 2 nM. For the same compound, the “inhibitory activity on HCMEC/D3 (in words)” value [2, 8] was “strong inhibitory activity”, the inhibition at 0.1 µM (FLT3) was 98.9% and the IC50 (IKK β) was 694 nM. For the same compound, the IC50 (ALK) was 5 nM, the “inhibition of phosphorylation of signaling pathway proteins” value [3] was “strong dose-dependent inhibition” and the “inhibition of phosphorylation of signaling pathway proteins” value [4] was “strong dose-dependent inhibition”. It also gave an inhibition at 0.1 µM (EGFR/T790M/L858R; average, read-out: Average % inhibition EGFR/T790M/L858R) of 77.2%, an inhibition at 0.1 µM (EGFR/T790M/L858R; replicate 1, read-out: % inhibition 1 EGFR/T790M/L858R) of 76.6% and an inhibition at 0.1 µM (EGFR/T790M/L858R; replicate 2, read-out: % inhibition 2 EGFR/T790M/L858R) of 77.9%. For the same compound, the inhibition at 0.1 µM (EGFR; average, read-out: Average % inhibition EGFR) was 42.3%, the inhibition at 0.1 µM (EGFR; replicate 1, read-out: % inhibition 1 EGFR) was 40.9% and the inhibition at 0.1 µM (EGFR; replicate 2, read-out: % inhibition 2 EGFR) was 43.6%. It also gave an inhibition at 0.1 µM (EGFR T790M; average, read-out: Average % inhibition EGFR T790M) of 56.9%, an inhibition at 0.1 µM (EGFR T790M; replicate 1, read-out: % inhibition 1 EGFR T790M) of 57% and an inhibition at 0.1 µM (EGFR T790M; replicate 2, read-out: % inhibition 2 EGFR T790M) of 56.8%. For the same compound, the inhibition at 0.1 µM (EGFR L858R/T790M/C797S; average, read-out: Average % inhibition EGFR L858R/T790M/C797S) was 74.5%, the inhibition at 0.1 µM (EGFR L858R/T790M/C797S; replicate 1, read-out: % inhibition 1 EGFR L858R/T790M/C797S) was 73.4% and the inhibition at 0.1 µM (EGFR L858R/T790M/C797S; replicate 2, read-out: % inhibition 2 EGFR L858R/T790M/C797S) was 75.7%. The inhibition at 0.1 µM (KDR; average, read-out: Average % inhibition KDR) was 71.4%, the inhibition at 0.1 µM (KDR; replicate 1, read-out: % inhibition 1 KDR) was 71.5% and the inhibition at 0.1 µM (KDR; replicate 2, read-out: % inhibition 2 KDR) was 71.3%. It also gave an inhibition at 0.1 µM (BTK; average, read-out: Average % inhibition BTK) of 50.2%, an inhibition at 0.1 µM (BTK; replicate 1, read-out: % inhibition 1 BTK) of 49.1% and an inhibition at 0.1 µM (BTK; replicate 2, read-out: % inhibition 2 BTK) of 51.3%. The IC50 ([5]; Homo sapiens, MTT, read-out: Inhibitory activity (IC50) HBVP) was 550 ± 98 nM, the “inhibitory activity on HBVP (in words)” value [5, 8] was “strong inhibitory activity” and the “inhibitory activity on adhesion” value (osteosarcoma cells MG63) was “strong dose-dependent inhibitory activity”. The “inhibitory activity on adhesion” value (osteosarcoma cells MNNG) was “strong dose-dependent inhibitory activity”, the IC50 [6] was 370 ± 2 nM and the IC50 [7] was 1030 ± 80 nM. For the same compound, the IC50 (MG-63 osteosarcoma cells) was 438 ± 1 nM and the IC50 (U2OS osteosarcoma cells) was 418 ± 17 nM.
